The text below walks through data of US20260034170A1, “NITRIC OXIDE TOPICAL APPLICATION APPARATUS AND METHODS” (NOxy Health Products, Inc., priority 2016, published 2026).

This assay has as its system bacteria on a surface, such as a person's skin. As to the kind of experiment: dose of nitric oxide required to kill bacteria on a surface.

A value given as a limit tells only on which side of the number the result lay.

In the case of `[N]=O` [nitric oxide], the “dose required to kill bacteria on a surface” value is given as not below 320 ppm.
